According to article PMC6151695, “Novel Selective Estrogen Receptor Ligand Conjugates Incorporating Endoxifen-Combretastatin and Cyclofenil-Combretastatin Hybrid Scaffolds: Synthesis and Biochemical Evaluation” (Molecules : A Journal of Synthetic Chemistry and Natural …, 2017):
Where “and” joins values, the source holds several entries; their conditions need not be identical. Equal values may be shown once. Entries after “also recorded” stand apart in the source; their conditions may differ. Read-outs that look alike come from different tables or passages of the source.

Tests used:
[1] = test system: MCF-7 human breast cancer cell line; experiment: Alamar Blue assay for antiproliferative effects; format: cell-based; conditions: for IC50: read-out: IC50 (μM), antiproliferative effects
MCF-7 cells = experiment: Flow cytometry (propidium iodide) cell cycle and apoptosis analysis in MCF-7; format: cell-based, human; conditions: MCF-7, 10 µM, 72 h
Procedure: Flow cytometry with propidium iodide stained cells was carried out to analyse the percentage of cells in each stage of the cell cycle and the number of apoptotic or dead cells. Samples were treated for 72 h at 10 µM. […] […].
MCF-7 cells were seeded at a density of 5 × 10^4 cells/well in a 12-well plate and treated with the indicated compounds for 72 h. Samples were then centrifuged at 650× g for 5 min and resuspended in 100 µL ice-cold PBS. Ice-cold 70% (v/v) ethanol (1 mL) was then added to fix the samples overnight at 4 °C. Samples were subsequently centrifuged at 800× g for 10 min and resuspended in 200 µL PBS. RNase A (12.5 µL of 10 mg/mL) and propidium iodide (37.5 µL of 1 mg/ mL) were added to samples which were then incubated for 30 min at 37°C. Cell cycle analysis was performed at 488 nm using a FACS Calibur flow cytometer (Becton Dickinson, Franklin Lakes, NJ, USA). The Macintosh-based application CellQuest was then used to analyse the data of 10,000 gated cells once cell debris had been excluded. Data points represent the mean ± S.E.M. of three independent experiments.

[2] = Homo sapiens, MCF7, MCF-7, at 1 μM, read-out: growth inhibition
[3] = Homo sapiens, MCF7, 72 h, MCF-7, 72 h, Alamar Blue
[4] = Homo sapiens, MCF7, read-out: growth inhibition

IC50 [1, 3] [µM]	Compound	further results
–	COc1ccc(/C=C(/C(N)=O)c2cc(OC)c(OC)c(OC)c2)cc1 [Compound 3p, (E)-3-(4-Methoxyphenyl)-2-(3,4,5-trimethoxyphenyl)acrylamide]	inhibition at 1 µM [1, 2]: 60%
> 50	CCC(=C(c1ccc(O)cc1)c1ccc(OCCN(C)C(=O)/C(=C/c2ccc(OC)c(OC)c2)c2cc(OC)c(OC)c(OC)c2)cc1)c1ccccc1 (mixture of isomers) [Compound 3g, (E/Z)-3-(3,4-Dimethoxyphenyl)-N-(2-(4-((Z)-1-(4-hydroxyphenyl)-2-phenylbut-1-en-1-yl)phenoxy)ethyl)-N-methyl-2-(3,4,5-trimethoxyphenyl)acrylamide]	–
2.5	COc1ccc(/C=C(/C(=O)N(C)CCOc2ccc(C(=C3CCCCCC3)c3ccc(O)cc3)cc2)c2cc(OC)c(OC)c(OC)c2)cc1O [Compound 13c, (E)-N-(2-(4-(Cycloheptylidene(4-hydroxyphenyl)methyl)phenoxy)ethyl)-3-(3-hydroxy-4-methoxyphenyl)-N-methyl-2-(3,4,5-trimethoxyphenyl)acrylamide]	apoptosis (MCF-7 cells): 20%
> 50	CCC(=C(c1ccc(O)cc1)c1ccc(OCCN(C)C(=O)/C(=C/c2ccc(OC)c(O)c2)c2cc(OC)cc(OC)c2)cc1)c1ccccc1 (mixture of isomers) [Compound 3d, (E/Z)-2-(3,5-Dimethoxyphenyl)-3-(3-hydroxy-4-methoxyphenyl)-N-(2-(4-((Z)-1-(4-hydroxyphenyl)-2-phenylbut-1-en-1-yl)phenoxy)ethyl)-N-methylacrylamide]	–
> 50	CCC(=C(c1ccc(O)cc1)c1ccc(OCCN(C)C(=O)/C(=C/c2cccc(O)c2)c2cc(OC)c(OC)c(OC)c2)cc1)c1ccccc1 (mixture of isomers) [Compound 3f, (E/Z)-3-(3-Hydroxyphenyl)-N-(2-(4-((Z)-1-(4-hydroxyphenyl)-2-phenylbut-1-en-1-yl)phenoxy)ethyl)-N-methyl-2-(3,4,5-trimethoxyphenyl)acrylamide]	–
> 50	CCC(=C(c1ccccc1)c1ccc(OCCN(C)C(=O)CCC(=O)O)cc1)c1ccccc1 [Compound 14a, N-{2-[4-(1,2-Diphenylbut-1-enyl)phenoxy]ethyl}-N-methylsuccinamic acid]	antiproliferative activity (in words) ([1]; MCF-7): very low antiproliferative activity; also recorded: no significant antiproliferative activity
–	CC/C(=C(\c1ccc(O)cc1)c1ccc(OCCN(C)C(=O)C=Cc2ccc(OC)c(O)c2)cc1)c1ccccc1 (mixture of isomers) [Compound 5a, (E/Z)-3-(3-Hydroxy-4-methoxyphenyl)-N-(2-(4-((Z)-1-(4-hydroxyphenyl)-2-phenylbut-1-en-1-yl)phenoxy)-ethyl)-N-methylacrylamide]	IC50 ([1]; MCF-7, 72 h, Alamar Blue): 51.3 µM
2.01	COc1ccc(/C=C(/C(=O)N(C)CCOc2ccc(C(=C3CCCCC3)c3ccc(O)cc3)cc2)c2cc(OC)c(OC)c(OC)c2)cc1O [Compound 13b, (E)-N-(2-(4-(Cyclohexaneylidene(4-hydroxyphenyl)methyl)phenoxy)ethyl)-3-(3-hydroxy-4-methoxyphenyl)-N-methyl-2-(3,4,5-trimethoxyphenyl)acrylamide]	–
–	COc1ccc(/C(=C\c2cc(OC)c(OC)c(OC)c2)C(N)=O)cc1 [Compound 3n, (E)-2-(4-Methoxyphenyl)-3-(3,4,5-trimethoxyphenyl)acrylamide]	inhibition at 1 µM [1, 4]: 20%
11.8	CCC(=C(c1ccc(O)cc1)c1ccc(OCCN(C)C(=O)/C(=C/c2cc(OC)c(O)c(OC)c2)c2cc(OC)c(OC)c(OC)c2)cc1)c1ccccc1 (mixture of isomers) [Compound 3j, (E/Z)-3-(4-Hydroxy-3,5-dimethoxyphenyl)-N-(2-(4-((Z)-1-(4-hydroxyphenyl)-2-phenylbut-1-en-1-yl)-phenoxy)ethyl)-N-methyl-2-(3,4,5-trimethoxyphenyl)acrylamide]	IC50 ([1]; MCF-7, 72 h, Alamar Blue): 11.8 µM
–	COc1ccc(/C=C(/C(=O)N(C)CCOc2ccc(C(=C3CCCC3)c3ccc(O)cc3)cc2)c2cc(OC)c(OC)c(OC)c2)cc1O [Compound 13a, (E)-N-(2-(4-(Cyclopentylidene(4-hydroxyphenyl)methyl)phenoxy)ethyl)-3-(3-hydroxy-4-methoxyphenyl)-N-methyl-2-(3,4,5-trimethoxyphenyl)acrylamide]	IC50 ([1]; Homo sapiens, MCF7, 72 h): 1.38 µM
> 50	CCC(=C(c1ccc(O)cc1)c1ccc(OCCN(C)C(=O)/C(=C/c2ccc(OC)c(OC)c2OC)c2cc(OC)c(OC)c(OC)c2)cc1)c1ccccc1 (mixture of isomers) [Compound 3h, (E/Z)-N-(2-(4-((Z)-1-(4-Hydroxyphenyl)-2-phenylbut-1-en-1-yl)phenoxy)ethyl)-N-methyl-3-(2,3,4-tri-methoxyphenyl)-2-(3,4,5-trimethoxyphenyl)acrylamide]	–
> 50	CCC(=C(c1ccc(O)cc1)c1ccc(OCCN(C)C(=O)/C(=C/c2ccc(C)s2)c2cc(OC)c(OC)c(OC)c2)cc1)c1ccccc1 (mixture of isomers) [Compound 3l, (E/Z)-N-(2-(4-((E)-1-(4-Hydroxyphenyl)-2-phenylbut-1-en-1-yl)phenoxy)ethyl)-N-methyl-3-(5-methyl-thiophen-2-yl)-2-(3,4,5-trimethoxyphenyl)acrylamide]	–
–	CCN(CC)C(=O)/C(=C/c1ccc(OC)cc1)c1cc(OC)c(OC)c(OC)c1 [Compound 3q, (E)-N,N-Diethyl-3-(4-methoxyphenyl)-2-(3,4,5-trimethoxyphenyl)acrylamide]	inhibition at 1 µM [1, 2]: 25%
4.78	CNCCOc1ccc(C(=C2CCCCC2)c2ccc(O)cc2)cc1 [Compound 11b, 4-(Cyclohexaneylidene(4-(2-(methylamino)ethoxy)phenyl)methyl)phenol]	–
> 50	CCC(=C(c1ccc(O)cc1)c1ccc(OCCN(C)C(=O)/C(=C/c2cc(OC)c(OC)c(OC)c2)c2cc(OC)c(OC)c(OC)c2)cc1)c1ccccc1 (mixture of isomers) [Compound 3c, (E/Z)-N-(2-(4-((Z)-1-(4-Hydroxyphenyl)-2-phenylbut-1-en-1-yl)phenoxy)ethyl)-N-methyl-2,3-bis(3,4,5-trimethoxyphenyl)acrylamide]	–
> 100	CCC(=C(c1ccc(O)cc1)c1ccc(OCCN(C)C(=O)CCc2cc(OC)c(OC)c(OC)c2)cc1)c1ccccc1 (mixture of isomers) [Compound 5d, N-(2-(4-((E/Z)-1-(4-Hydroxyphenyl)-2-phenylbut-1-enyl)phenoxy)ethyl)-3-(3,4,5-trimethoxyphenyl)-N-methylpropanamide]	IC50 ([1]; MCF-7, 72 h, Alamar Blue): > 50 µM
> 100	CCC(=C(c1ccc(O)cc1)c1ccc(OCCN(C)C(=O)/C=C/c2cc(OC)c(OC)c(OC)c2)cc1)c1ccccc1 (mixture of isomers) [Compound 5c, (E/Z)-N-(2-(4-((Z)-1-(4-Hydroxyphenyl)-2-phenylbut-1-en-1-yl)phenoxy)ethyl)-N-methyl-3-(3,4,5-tri-methoxyphenyl)acrylamide]	IC50 ([1]; MCF-7, 72 h, Alamar Blue): > 50 µM
> 50	CCC(=C(c1ccc(O)cc1)c1ccc(OCCN(C)C(=O)/C(=C/c2cc(OC)c(OC)c(OC)c2)c2cc(OC)cc(OC)c2)cc1)c1ccccc1 (mixture of isomers) [Compound 3b, (E/Z)-2-(3,5-Dimethoxyphenyl)-N-(2-(4-((Z)-1-(4-hydroxyphenyl)-2-phenylbut-1-en-1-yl)phenoxy)ethyl)-N-methyl-3-(3,4,5-trimethoxyphenyl)acrylamide]	–
3.09	CNCCOc1ccc(C(=C2CCCC2)c2ccc(O)cc2)cc1 [Compound 11a, 4-(Cyclopentylidene(4-(2-(methylamino)ethoxy)phenyl)methyl)phenol]	–
–	CCN(CC)C(=O)/C(=C/c1ccc(OC)c(O)c1)c1cc(OC)c(OC)c(OC)c1 [Compound 3o, (E)-N,N-diethyl-3-(3-hydroxy-4-methoxyphenyl)-2-(3,4,5-trimethoxyphenyl) acrylamide]	inhibition at 1 µM [1, 4]: 16%
–	CCC(=C(c1ccc(O)cc1)c1ccc(OCCN(C)C(=O)CCc2ccc(OC)c(O)c2)cc1)c1ccccc1 (mixture of isomers) [Compound 5b, (E/Z)-3-(3-hydroxy-4-methoxyphenyl)-N-(2-(4-(1-(4-hydroxyphenyl)-2-phenylbut-1-en-1-yl)phenoxy)ethyl)-N-methylpropanamide]	IC50 ([1]; MCF-7, 72 h, Alamar Blue): 46.7 µM and 46.8 µM
> 50	CCC(=C(c1ccc(O)cc1)c1ccc(OCCN(C)C(=O)/C(=C/c2ccc(O)c(O)c2)c2cc(OC)c(OC)c(OC)c2)cc1)c1ccccc1 (mixture of isomers) [Compound 3e, (E/Z)-3-(3,4-Dihydroxyphenyl)-N-(2-(4-((Z)-1-(4-hydroxyphenyl)-2-phenylbut-1-en-1-yl)phenoxy)ethyl)-N-methyl-2-(3,4,5-trimethoxyphenyl)acrylamide]	–
–	CCC(=C(c1ccc(O)cc1)c1ccc(OCCN(C)C(=O)/C(=C/c2ccc(OC)c([N+](=O)[O-])c2)c2cc(OC)c(OC)c(OC)c2)cc1)c1ccccc1 (mixture of isomers) [Compound 3a, (E/Z)-N-(2-(4-((E)-1-(4-Hydroxyphenyl)-2-phenylbut-1-en-1-yl)phenoxy)ethyl)-3-(4-methoxy-3-nitro-phenyl)-N-methyl-2-(3,4,5-trimethoxyphenyl)acrylamide]	IC50 ([1]; Homo sapiens, MCF7, 72 h): > 50 µM
